Measured values as given in patent publication US9915647B2 (priority 2011, dated 2018).

Assays:
[1] = system: V79-G3 cells; assay type: cell-based, Chinese hamster
[2] = system: HEK293 cells; assay type: cell-based, human

C=C(C)[C@H]1Cc2c(ccc3c2O[C@@H]2COc4cc(OC)c(OC)cc4[C@@H]2C3=O)O1 [rotenone]
rotenone sensitivity of glutamate+malate-supported respiration [1]: sensitive to rotenone | inhibition of ADP-stimulated respiration [2]: dose-dependently

Nc1ncnc2c1ncn2[C@@H]1O[C@H](COP(=O)(O)OP(=O)(O)O)[C@@H](O)[C@H]1O [ADP, adenosine diphosphate]
increase in respiration over the basal level [1]: ~20%
